How the values were obtained:
Lolium multiflorum = assay: Post-emergence treatment test in dry field; assay type: in vivo; conditions: treatment amount 500 g/ha; foliar spray at first to second leaf stage; twenty days after treatment; 0 = no effect, 10 = complete death
Protocol: A plastic cup with a diameter of 8 cm and a depth of 6.5 cm was filled with commercially available soil. Seeds of Lolium multiflorum were sowed in the cup, covered with soil about 0.5 cm thick and then grown in a greenhouse. When the plants were grown in the first to second leaf stage, a diluted liquid formulation containing a prescribed amount of the compound I-a-2 was sprayed onto the whole plants uniformly. The diluted liquid formulation was prepared by dissolving a prescribed amount of the compound I-a-2 in a 2% solution of Tween 20 (polyoxyethylene sorbitan fatty acid ester, MP Biomedicals, Inc.) in dimethylformamide and then diluting the solution with deionized water. After the treatment, the plants were grown in a greenhouse. Twenty days after treatment, the controlling effect of the compound on Lolium multiflorum was visually evaluated. The effect was rated in 11 levels, from 0 to 10 (0 represents “no effect”; 10 represents “complete death”; and a state of the plant therebetween is rated in levels of 1 to 9).
The other compounds of the present invention, and Compound A described in J. Heterocycl. Chem., vol. 42, pp. 427-435 (2005) as a comparative example were similarly tested.

Apera spica-venti = assay: Pre-emergence treatment test in dry field; assay type: in vivo; conditions: treatment amount 500 g/ha; sprayed onto soil surface after sowing; three weeks after treatment; 0 = no effect, 10 = complete death
Protocol: A plastic container (32 cm×22 cm×8 cm in height) was filled with soil sterilized by steam. Seeds of Apera spica-venti were sowed in the container and covered with soil about 0.5 cm thick. Then, a diluted liquid formulation containing a prescribed amount of the compound I-a-1 was sprayed onto the soil surface uniformly. The diluted liquid formulation was prepared by the method similar to that in Test example 1. After the treatment, the plants were grown in a greenhouse. Three weeks after treatment, the controlling effect of the compound on Apera spica-venti was visually evaluated. The effect was rated in 11 levels, from 0 to 10 similarly to Test example 1.
The other compounds of the present invention and Compound A as a comparative example were similarly tested.

Q: What does the source list for `Cc1ccccc1-c1c(O)cnn(C)c1=O` [Compound A]?
A: controlling effect on Lolium multiflorum (visually evaluated, rated 0 to 10) (Lolium multiflorum): 1; controlling effect on Apera spica-venti (visually evaluated, rated 0 to 10) (Apera spica-venti): 1

— patent US8470738B2, “Pyridazinone compound and herbicide containing the same” (Sumitomo Chemical Company, Limited, priority 2007, dated 2013)
